Test results as given in patent US20220062340A1, “IMMUNOTHERAPEUTIC METHODS AND COMPOSITIONS” (KING'S COLLEGE LONDON, priority 2018, published 2022).

Columns and labels:
integrin β7 on Tregs = experiment: Dose response of integrin β7 induction on expanded Tregs; type: cell-based; conditions: Homo sapiens; Tregs in in vitro culture, FIG. 2c; read-out: EC50 to induce the expression of integrin β7
Procedure: FACS-sorted Treg populations were plated at 1×10^6 or 0.5×10^6 in X-VIVO-15 medium and activated with anti-CD3/anti-CD28 coated beads (Dynabeads®, Invitrogen, Paisley, UK) at 1:1 bead: cell ratio. Rapamycin was added at day 0 of culture at a final concentration of 100 nM/L +/−ATRA 1 nM/L or RAR568 1 nM/L. Next, 1,000 IU/ml recombinant human IL-2 (rhlL-2) (Proleukin®, Novartis, Camberley, UK) was added at day 5 of culture. Cells were re-stimulated every 10-12 days and expanded for a total of 24-30 days. The phenotype and suppressive ability were assessed at the end of the culture period.
Flow cytometry panels have been designed to assess the subtypes of regulatory T cells in patients with CD as well as their expression of gut homing molecules. Gating was performed based on natural populations when assessing for CD4^+CD25^highCD127low populations, as well as for CD45RA^+ Treg populations. Additionally, to minimize bias in the assessment of expression of gut homing markers and transcription factors, a fluorochrome minus one (FMO) panel was added for each marker of interest in each experiment that was performed.

Tregs from CD patients = experiment: Gene array of expanded Tregs from CD patients; type: cell-based, human; conditions: compared to rapamycin only, n=3
Procedure: Gene array analyses were carried out using Partek® software with a 1-way ANOVA to assess for differential gene expression.
1) RNA extraction was performed using Qiagen RNEasy mini/micro kits as per manufacturer's instructions. The samples were checked for RNA quality using the Agilent 2100 Bioanalyzer and quantified using the Nanodrop (ND-1000 Spectrophotometer). Samples which passed QC (RIN>8) were chosen such that input amount of each sample was 3 ng.
2) SPIA cDNA was generated using the “Ovation Pico WTA System V2” kit from Nugen, following the manufacturer's instructions.
3) The SPIA cDNA was subjected to a QC check to assess quality (Agilent 2100 Bioanalyzer) and quantity (Nanodrop ND-1000 Spectrophotometer) for the next stage.
4) The SPIA cDNA was fragmented and Biotin-labelled using the “Encore Biotin Module” from Nugen according to the manufacturer's instructions and passed through QC checks to assess fragmentation size (Agilent 2100 Bioanalyzer).
6) Hybridization cocktails were prepared of the fragmented labelled-cDNA according to Nugen's recommendations and hybridized at 45° C. overnight in an oven.
7) The arrays were washed and stained using wash protocol FS450_0002 (Affymetrix protocol recommended for Human Gene 2.0 Arrays on the GeneChip Fluidics station 450.
8) The arrays were scanned using the Affymetrix GeneChip Scanner.
Gene expression analyses were performed on Tregs from CD patients expanded in the presence of Rapa+ATRA, Rapa+RAR568 or rapamycin only (n=3 in each group). […] CD161 has previously been described as a marker of T helper (Th) 17-like Tregs^32. This was not observed in the RAR568-treated group. […] IL-18 Receptor 1 and STAT4 are responsible for Th1 lineage commitment and IFNγ production, both have been independently identified as IBD disease related polymorphisms on GWAS^33-36. CD38 has been identified as a marker associated with mature T cells, signaling reduced proliferation, but an increased ability to produce pro-inflammatory cytokines such as IFNγ^37. Ligation of GPR174 negatively affects Treg accumulation and function^38. No clear difference in transcripts for canonical pathways were identified when ATRA treated cells were compared with RAR568 treated cells.
To assess for off target RARγ effects, we compared the gene expression profiles of RAR568 and ATRA treated cells to a published dataset of RARγ target genes^39. […] Given the efficacy at inducing α4β7 and lack of off target effects, RAR568 fulfilled the target product profile for an agent that could be used for ex vivo Treg expansion for cell-based therapy purposes. Therefore, we probed this effect of RAR568 on Tregs from CD patients in functional in vitro and in vivo trafficking assays.

[1] = tested on: integrin α4β7 on Treg surface; experiment: Induction of integrin α4β7 on bulk Treg surface by RARα agonists (FIG. 6); type: cell-based; conditions: bulk CD4+CD25+CD127− Tregs, 12 days stimulation, reducing agonist concentrations
Procedure: Bulk Tregs (CD4+CD25+CD127−) Tregs (50,000 per well) were expanded in vitro with reducing concentrations of the agonists. Culture conditions: 2 aCD3/aCD28 beads/cell, 1000IU/mL IL-2, 0.1 nM Rapamycin+Agonist in X-vivo 15. Following 12 days stimulation, cells were stained for CD4, CD25, CD127, FOXP3, Integrin a4, Integrin b7, CD15s, CD161 and acquired on a BD symphony flow cytometer. Data was analysed in Flowjo and Prism.

MAdCAM-1 = experiment: In-vitro trafficking assay, MAdCAM-1 coated Ibidi flow chamber; type: cell-based, human; conditions: agonist-treated Tregs from CD patients compared to cells expanded under standard conditions
Procedure: Ibidi (Martinsreid, Germany) μ-Slides VI″ were coated with recombinant human MAdCAM-1 (R&D Systems, Minneapolis, Minn.), at a concentration of 10μg/ml and incubated overnight. Cells from two CD patients that had previously undergone ex vivo expansion under two parallel conditions (Rapa and Rapa+RAR568) and had been frozen in liquid nitrogen were defrosted and rested overnight. Rested cells were then activated with rhCCL25 (R&D systems) and passed through the coated Ibidi flow chamber at a rate of 1 dyne/cm^2. The total number of cells, as well as those rolling, adherent and crawling was quantified from six randomly selected fields of view per treatment.
In order to assess the physiological relevance of the induction of α4β7 expression by RAR568, treated and untreated Tregs from CD patients were passed through a MAdCAM-1 coated flow chamber (FIG. 10). The total number of cells adherent to the chamber, as well as their stages of rolling, adhesion and crawling, were compared to cells that were expanded under standard conditions.

RARβ = molecular target: T1, RARβ (Homo sapiens, UniProt P10826); experiment: Selectivity profile against human RARs (RARβ); type: biochemical
T1 sequence (P10826 1-455): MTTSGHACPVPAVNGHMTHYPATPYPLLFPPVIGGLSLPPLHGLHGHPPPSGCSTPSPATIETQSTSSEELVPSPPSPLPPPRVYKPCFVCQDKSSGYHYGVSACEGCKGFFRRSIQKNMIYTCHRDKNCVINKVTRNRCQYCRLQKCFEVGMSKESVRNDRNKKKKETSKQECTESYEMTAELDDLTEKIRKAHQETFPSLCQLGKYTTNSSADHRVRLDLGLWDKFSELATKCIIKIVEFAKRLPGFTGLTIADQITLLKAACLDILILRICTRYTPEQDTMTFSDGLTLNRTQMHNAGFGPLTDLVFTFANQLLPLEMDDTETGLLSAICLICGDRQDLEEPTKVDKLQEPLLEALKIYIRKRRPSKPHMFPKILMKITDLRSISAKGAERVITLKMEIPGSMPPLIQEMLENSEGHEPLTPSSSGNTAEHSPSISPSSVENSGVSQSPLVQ

EC50 (integrin β7 on Tregs): 0.01 nM
selectivity for RARα over RARβ (RARβ): 290 fold
Compound: CCOc1c(Cl)cc(C(=O)Nc2ccc(C(=O)O)c(C)c2)cc1OC(C)C [RAR568]
transcripts for CD161 (Tregs from CD patients): not observed
induction of integrin α4β7 on Treg surface [1]: comparable effects
total cells and cells rolling, adherent and crawling in MAdCAM-1 coated flow chamber (MAdCAM-1): significantly more total cells as well as cells at each condition of migration
